In article PMC8466754, “Esterase-Sensitive Prodrugs of a Potent Bisubstrate Inhibitor of Nicotinamide N-Methyltransferase (NNMT) Display Cellular Activity” (Biomolecules, 2021):

Tests used:
[1] = Aqueous solubility (observation); type: physicochemical
[2] = system: pig liver esterase (PLE); assay: Esterase-mediated hydrolysis to the parent compound (RP-HPLC); type: in vitro ADME
Description: The conversion of the prodrugs to the parent compound by esterases was evaluated using pig liver esterase (PLE, 18 U/mg, Sigma-Aldrich, St. Louis, MO, USA) in PBS at pH 7.4. Compounds were dissolved in DMSO at 40 mM, diluted to a final concentration of 2 mM with PBS, and added to an equal volume of a 10 mg/mL solution of PLE in PBS (pH 7.4), resulting in final concentrations of 2.5% DMSO, 1 mM compound, and 5 mg/mL PLE. At different time-points 50 µL aliquots were taken, added to 100 µL acetonitrile to precipitate the proteins, and centrifuged for 5 min at 10,000 rpm. The supernatant was subsequently analyzed by HPLC as described in Section 2.2 above.
The next step was to establish whether compounds 12e and 14e are converted to the parent compound in the presence of an esterase.

[3] = system: HSC-2 human oral cancer cell line; assay: MTT cell viability assay, HSC-2; type: cell-based
Description: (§1) HSC-2 human oral cancer cell line, T24 human bladder cancer cell line, and A549 human lung cancer line were cultured in DMEM/F12 medium and supplemented with 10% fetal bovine serum and 50 μg/mL gentamicin at 37 °C in a humidified 5% CO2 incubator. For each compound tested, powder was dissolved in DMSO at 100 mM concentration. This stock solution was then diluted in culture medium to final concentration values ranging between 1 µM and 100 µM. For each sample, DMSO was kept constant at 0.1% final concentration. The day before starting treatment, cells were seeded in 96-well plates, at a density of 2000 cells/well. Cells were allowed to attach overnight and then incubated with compounds at different concentrations, or with DMSO only, for 24, 48, and 72 h. All experiments were performed in triplicate.
(§2) Cell proliferation was determined using a colorimetric assay with 3-(4,5-dimethylthiazol-2-yl)-2,5-diphenyl tetrazolium bromide (MTT). The MTT assay measures the conversion of MTT to insoluble formazan by dehydrogenase enzymes of the intact mitochondria of living cells. Cell proliferation was evaluated by measuring the conversion of the tetrazolium salt MTT to formazan crystals upon treatment with compounds or DMSO only for 24, 48, and 72 h. Briefly, cells were incubated for 2 h at 37 °C with 100 µL fresh culture medium containing 5 µL of MTT reagent (5 mg/mL in PBS). The medium was removed and 200 µL isopropanol were added. The amount of formazan crystals formed correlated directly with the number of viable cells. The reaction product was quantified by measuring the absorbance at 540 nm using a plate reader. Experiments were repeated three times. Results were expressed as a percentage of the control (the control equals 100% and corresponds to the absorbance value of each sample at time zero) and presented as mean values ± standard deviation of three independent experiments performed in triplicate.

[4] = system: A549 human lung cancer line; assay: MTT cell viability assay, A549; type: cell-based
Description: as §1, §2

[5] = target: T1, NNMT (Homo sapiens, UniProt P40261); assay: 1-Methylnicotinamide (MNA) quantification in A549 cells (LC-MS); settings: A549 lung carcinoma cells; 0.1–100 µM; 24-h treatment (Figure 4)
T1 sequence (P40261 1-264): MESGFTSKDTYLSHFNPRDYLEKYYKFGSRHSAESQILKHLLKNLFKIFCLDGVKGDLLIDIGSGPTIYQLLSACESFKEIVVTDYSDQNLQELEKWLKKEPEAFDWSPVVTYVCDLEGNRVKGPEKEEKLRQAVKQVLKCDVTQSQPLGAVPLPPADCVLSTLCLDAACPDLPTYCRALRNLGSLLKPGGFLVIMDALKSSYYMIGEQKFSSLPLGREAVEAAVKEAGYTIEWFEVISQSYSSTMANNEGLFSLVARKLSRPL
Description: Human lung adenocarcinoma line (A549, ATCC, Manassas, VA, USA) was cultured according to the provider’s indications and seeded in 6-well format. […] After incubation, effluent samples were taken and frozen (−80 °C) for further MNA measurement. Cells also were collected, centrifuged (2 × 500 G/5 min.), and frozen both for the measurement of intracellular MNA and for BCA protein assay.
The quantification of 1-methylnicotinamide (MNA), nicotinamide (NA), nicotinic acid (NicA), 1-methyl-2-pyridone-5-carboxamide (Met-2Pyr), and 1-methyl-4-pyridone-5-carboxamide (Met-4Pyr) was performed by applying ultra-high pressure liquid chromatography coupled to tandem mass spectrometry (UPLC-MS) according to the methodology previously described with minor modifications [35]. A UPLC-MS system comprised of a UPLC Ultimate 3000 (Dionex, Thermo Scientific, Waltham, MA, USA) connected to a TSQ Quantum Ultra mass spectrometer (Thermo Scientific, Waltham, MA, USA) equipped with a heated electrospray ionization interface (HESI-II Probe, Waltham, MA, USA) was used. Chromatographic separation of analytes was carried out on an Aquasil C18 analytical column (4.6 mm × 150 mm, 5 mm; Thermo Scientific, Waltham, MA, USA) under isocratic elution using acetonitrile with 0.1% of formic acid (A) and 5 mM ammonium formate in water (B) as mobile phases delivered at the flow rate of 0.8 mL/min (A:B, 80:20, v/v). The cell pellet was resuspended in 60 µL of deionized water and 50 µL of suspension was transferred to a fresh test tube. An amount of 50 µL of effluent sample was used for the measurement of extracellular MNA. The internal standard (IS) containing MNA-d3 was added to each sample (5 µL) obtaining the final concentration of 500 ng/mL. After the sample mixing, the proteins were precipitated using 100 μL of acidified acetonitrile (0.1% of formic acid), and samples were mixed (10 min), cooled at 4 °C (15 min), and finally centrifuged (15,000× g, 15 min, 4 °C). A clear supernatant was transferred to a chromatographic vial and directly injected (5 µL) into UPLC-MS system. […] The concentration of MNA was calculated based on the calibration curve plotted for the analyte as the relationship between the peak area ratios of analyte/IS to the nominal concentration of the analyte. The concentration of analytes was normalized to milligram of proteins, which was assessed using a Pierce^TM BCA Protein Assay Kit (Thermo Fisher, Waltham, MA, USA) and a Synergy4 multiplate reader (BioTek, Winooski, VT, USA). […]
Using this assay, the levels of MNA produced by NNMT in an A549 lung carcinoma cell line can be quantified by means of a sensitive LC-MS method.

[6] = system: T24 human bladder cancer cell line; assay: MTT cell viability assay, T24; type: cell-based
Description: as §1, §2

[7] = Ester stability assay in buffer (RP-HPLC); type: physicochemical; settings: for percentage of compound peak area present after 16 h of incubation, PBS: PBS buffer pH 7.4, 16 h; for percentage of compound peak area present after 16 h of incubation, PBS / percentage of compound peak area present after 16 h of incubation, Tris: room temperature, 1 mM compound; for hydrolytic stability in buffer (in words): PBS pH 7.4 and Tris pH 8.4, over 16 h; for percentage of compound peak area present after 16 h of incubation, Tris: Tris buffer pH 8.4, 16 h
Description: The prodrugs were evaluated for their stability in both PBS buffer at pH 7.4 and Tris buffer at pH 8.4. The compounds were dissolved in DMSO at a concentration of 40 mM and diluted with the respective buffer to a final concentration of 1 mM. Compounds were tested directly (t0) and subsequently every 2 h over a time period of 16 h by HPLC. Compounds were eluted from a Dr. Maisch ReproSil-Pur C18 column (4.6 × 250 mm, 10 μm particle size, Dr. Maisch, Ammerbuch-Entringen, Germany) with the following solvent system at a flow rate of 0.5 mL/min: solvent A, 0.1% trifluoroacetic acid in water/acetonitrile (95:5); solvent B, 0.1% trifluoroacetic acid in water/acetonitrile (5:95). Gradient elution was as follows: 100:0 (A/B) to 0:100 (A/B) over 8 min, 0:100 (A/B) for 1 min, then reversion back to 100:0 (A/B) over 1 min, 100:0 (A/B) for 2 min. The formation of the parent compound was evaluated and normalized by measuring the peak area at 214 nm and comparing it to the initial timepoint.
All prodrugs prepared were first tested for their inhibitory activity against NNMT using a biochemical enzymatic activity assay. […] Both these buffers and pHs have been used in the different biochemical and cellular assays described in this report. Compounds were dissolved in DMSO at a concentration of 40 mM and diluted with the respective buffer to a final concentration of 1 mM. Compound stability was then assessed by RP-HPLC directly (t0) and subsequently every 2 h over a time period of 16 h. […] Even for the rather labile methyl ester 12b, the TML group in 14b results in a decrease in hydrolysis of the methyl ester.

[8] = target: T1, NNMT; assay: Cellular MNA in HMEC-1 cells (Figure S1); type: cell-based; parameters: concentrations in endothelial HMEC-1 cells after 24-hour incubation; endogenous in cells; host or cells: HMEC-1 endothelial cells; settings: 10 µM, 24-hour incubation
Description: The following are available online at https://www.mdpi.com/article/10.3390/biom11091357/s1, Figure S1: cellular MNA data in HMEc-1 cells treated with 10 µM reference inhibitors or prodrugs; ^1H and ^13C NMR spectra of compounds 3e, 4c–e, 8a, 11b–f, 12b–f, 13a–c, 13e, 14a–f.
Figure S1. 1-methylnicotinamide (MNA) concentrations in endothelial HMEC-1 cells after 24-hour incubation
with 10 µM of reference compounds 5-amino-methylquinolinium (5-MQ), 6-methylamino-nicotinamide (6-
MANA), parent compound GYZ-319 or prodrug compounds 12b-f and 14a-e. […]

[9] = system: human cancer cell lines; parameters: method as in PMID 34424711; settings: range of human cancer cell lines; highest concentration tested 100 µM; cited from earlier work

Compound | aqueous solubility [1] | time to full conversion to the parent compound ([2]; 5 mg/mL PLE, PBS pH 7.4, 1 mM compound) | hydrolysis in the absence of PLE ([2]; PBS pH 7.4, without PLE) | effect on cell viability (MTT) ([3]; 100 µM, 24, 48 and 72 h) | effect on cell viability (MTT) ([3]; 1 and 10 µM, 24, 48 and 72 h) | effect on cell viability (MTT) ([4]; 100 µM, 24, 48 and 72 h) | effect on cell viability (MTT) ([4]; 1 and 10 µM, 24, 48 and 72 h) | effect on cellular MNA levels [5] | effect on cell viability (MTT) ([6]; 100 µM, 24, 48 and 72 h) | effect on cell viability (MTT) ([6]; 1 and 10 µM, 24, 48 and 72 h) | percentage of compound peak area present after 16 h of incubation, PBS [7] | hydrolytic stability in buffer (in words) [7] | percentage of compound peak area present after 16 h of incubation, Tris [7] | cellular activity (MNA concentration) compared to parent compound [8] | antiproliferative effects [9]
CC(=O)Oc1cc(C)cc(C)c1C(C)(C)CC(=O)N[C@@H](CCN(C/C=C/c1ccc(C#N)cc1)C[C@H]1O[C@@H](n2cnc3c(N)ncnc32)[C@H](O)[C@@H]1O)C(=O)OCc1ccccc1 [Compound 14f, Benzyl-(S)-2-(3-(2-acetoxy-4,6-dimethylphenyl)-3-methylbutanamido)-4-((((2R,3S,4R,5R)-5-(6-amino-9H-purin-9-yl)-3,4-dihydroxytetrahydrofuran-2-yl)methyl)((E)-3-(4-cyanophenyl)allyl)amino)butanoate] | poor aqueous solubility | – | – | – | – | – | – | – | – | – | – | – | – | – | –
CC(C)OC(=O)[C@@H](N)CCN(C/C=C/c1ccc(C#N)cc1)C[C@H]1O[C@@H](n2cnc3c(N)ncnc32)[C@H](O)[C@@H]1O [Compound 12e, Isopropyl-(S)-2-amino-4-((((2R,3S,4R,5R)-5-(6-amino-9H-purin-9-yl)-3,4-dihydroxytetrahydrofuran-2-yl)methyl)((E)-3-(4-cyanophenyl)allyl)amino)butanoate] | – | ≤ 4 h | no hydrolysis was observed | effect comparable to GYZ-319 | no effects | effect comparable to GYZ-319 | no effects | clear and significant decrease in MNA levels | effect comparable to GYZ-319 | no effects | 98.59% | most stable | 93.70% | – | –
CC(=O)Oc1cc(C)cc(C)c1C(C)(C)CC(=O)N[C@@H](CCN(C/C=C/c1ccc(C#N)cc1)C[C@H]1O[C@@H](n2cnc3c(N)ncnc32)[C@H](O)[C@@H]1O)C(=O)O [Compound 14a, (S)-2-(3-(2-acetoxy-4,6-dimethylphenyl)-3-methylbutanamido)-4-((((2R,3S,4R,5R)-5-(6-amino-9H-purin-9-yl)-3,4-dihydroxytetrahydrofuran-2-yl)methyl)((E)-3-(4-cyanophenyl)allyl)amino)butanoic acid] | – | – | – | – | – | – | – | – | – | – | 99.10% | most stable | 93.97% | not to improve the cellular activity of the parent compound | –
N#Cc1ccc(/C=C/CN(CC[C@H](N)C(=O)O)C[C@H]2O[C@@H](n3cnc4c(N)ncnc43)[C@H](O)[C@@H]2O)cc1 [GYZ-319] | – | – | – | – | no effects | – | no effects | high concentrations of both 6-MANA and GYZ-319 are required to substantially decrease the levels of MNA | – | no effects | – | – | – | – | only showed significant antiproliferative effects at the highest concentration tested of 100 µM
